# Patent US6806257B1, “Flavones as inducible nitric oxide synthase inhibitors, cyclooxygenase-2 inhibitors and potassium channel activators” (priority 1999, dated 2004)
# Entries after “also recorded” stand apart in the source; their conditions may differ. Read-outs that look alike come from different tables or passages of the source.
# Key:
# [1] = tested on: porcine cerebral arteries; experiment: In vitro tissue bath vasorelaxation of precontracted porcine cerebral arteries; details: for relaxation of cerebral arteries: concentrations as high as 100 μM, n=4
# [2] = tested on: LPS-induced NO production in RAW264.7 macrophages; experiment: LPS-induced nitrite (NO) production in RAW264.7 macrophages, Griess reaction; format: cell-based, mouse; details: for NO: 24 hours
# Method: (§1) Cells. RAW264.7, a mouse macrophage cell line, was obtained from American Type Culture Collection. Cells were cultured in RPMI-1640 medium (available from Gibco Life Technology, in Gaithersburg, Md.) supplemented with 2 mM L-glutamine, antibiotics (100 units/ml penicillin-A and 100 units/ml streptomycin) and 10% heat-inactivated fetal bovine serum (Gibco/BRL) and maintained at 37° C in a humidified incubator containing 5% CO2.
# Nitrite assay. The nitrite concentration in the medium was measured as an indicator of NO production according to the Griess reaction (Kim et al., J. Immunol. 153: 4741-4748). One hundred microliters of each supernatant was. mixed with the same volume of Griess reagent (1% sulfanilamide in 5% phosphoric acid and 0. 1% naphthylethylenediamine dihydrochloride in water); absorbency of the mixture at 550 nm was determined with an enzyme-linked immunosorbent assay plate reader (Dynatech MR-7000; Dynatech Labs, Chantilly, Va.).
# The effects of flavonoids, ellagitannins, anthraquinones on LPS-induced NO production in macrophages were studied as follows. The chemical structures of two flavonoids (myricitrin, N1; oroxylin A, N2) four ellagitannins (penta-O-galloyl-β-glucopyranose, N3; woodfordin C, N4; onothein B, N5; cuphiin, N6), and two anthraquinones (emodin, N7; physcion, N8) that were used in the present study were shown in FIG. 1. The effects of these eight compounds on NO production in RAW264.7 macrophages were investigated. The accumulated nitrite in the culture medium was used as an index for NO synthesis from these cells. […]
# iNOS [3] = experiment: LPS-induced iNOS expression in RAW264.7 macrophages (western/northern blot); format: cell-based, mouse; details: NLA (or L-NAME) plus LPS co-treated
# Method: as §1
# (§2) Western blots. Total cellular extract, cytosolic fractions (for IkB) and nuclear fraction (for p65 antibody) were prepared according to Muller et al., Immunobiology, 187, 233-256, 1993 and separated on sodium dodecyl sulfatepolyacrylamide minigels (8% for iNOS or COX-2, and 10% for IkB or p65) and transferred to immobilon polyvinylidene difluoride membranes (Millipore, Bedford, Mass.). The membrane was incubated overnight at 4° C. with 1% bovine serum albumin and then incubated with anti-iNos, COX-2, α-Tubulin monoclonal antibodies (Transduction Laboratories, Lexington, Ky.), anti-IkB or anti-p65 polyclonal antibodies (Santa Cruz Biochemicals, Santa Cruz, Calif.). iNOS, IkB, p65, Cox-2, α-Tubulin were detected by NBT and BCIP staining (Sigma Chemical Co., St. Louis, Mo.).
# Northern blot analysis. Total RNA (20 μg/lane) were separated by electrophoresis on 1.2% agarose gel containing 6.7% formaldehyde and transformed to a Hybond-N nylon membrane (American Life Science) in 20×standard saline citrate (3 M sodium chloride and 0.3 M sodium citrate, pH 7.0). After heating at 80° C. for 2 hours and prehybridization for 4 hours, the filters were hybridized with ^32P-labeled murine iNOS cDNA probes at a concentration of 3×10^6 cpm/ml for 16-18 hours at 42° C. The probe was labeled with [α-32P] dCTP by using Random Primer labeling kit (Stratagene, La Jolla, Calif.). Then, the filters were washed, dried and autoradiographed with Kodak-X-Omat XAR-film using intensifying screens at −80° C.
# COX-2 [4] = experiment: LPS-induced COX-2 expression in RAW264.7 macrophages (western/northern blot); format: cell-based, mouse
# Method: as §1, §2
# iNOS [5] = experiment: Indirect iNOS enzyme assay: NO in medium of LPS-pretreated intact RAW 264.7 cells; format: cell-based, mouse
# iNOS [6] = experiment: Direct iNOS enzyme activity assay in RAW 264.7 cell lysates; format: biochemical, mouse
# COX-2 [7] = experiment: COX-2 enzyme activity: PGE2 from added arachidonic acid in LPS-treated RAW 264.7 cells; format: cell-based, mouse; details: for PGE2: then arachidonic acid (100 μM) 15 min; for PGE2 production using added arachidonic acid as a substrate: added after COX-2 induction by LPS
# [8] = tested on: LPS-induced PGE2 production in RAW 264.7 macrophages; experiment: LPS-induced PGE2 production in RAW 264.7 macrophages (co-treatment); format: cell-based, mouse; details: 24 hours
# Method: Un-stimulated RAW 264.7 macrophages in culture medium for 24 hours produced basal amount of PGE2 (1.5 ng/mL) in the medium.
# [9] = arteries without endothelial cells, U-46619
# [10] = LPS + L-NAME (2 mM) + compound 40 μM
# [11] = LPS + NLA (2 mM) + compound 40 μM
# [12] = 20 μM for 30 min after LPS 6 hours
molecule,measurement,setting,value
"CC1C(=O)OC2C(O)C34C5CC(C(C)(C)C)C36C(OC(=O)C6O)OC4(C(=O)O5)C12O (stereo not drawn) [ginkgolide B, reference compound]",relaxation of cerebral arteries,[1],very small relaxation or no response
"Cc1cnc(C(=O)NCCc2ccc(S(=O)(=O)NC(=O)NC3CCCCC3)cc2)cn1 [glipizide, reference compound]",effect of the blocker/inhibitor on oroxylin A-induced relaxation,[1]; [9],did not affect
O=c1cc(-c2ccccc2)oc2cc(O)c(O)c(O)c12 [baicalein],NO,[2]; [10],7.9 ± 1.2 μmole/4 × 10^5
same,NO,[2]; [11],8.3 ± 1.3 μmole/4 × 10^5
same,IC50,"[2]; Mus musculus, RAW264.7, together with LPS (100 μg/mL) for 24 hours, n=3, read-out: IC50 in inhibiting LPS-induced NO production",19.4 ± 1 µM
same,LPS-induced nitrite production,[2]; different concentrations together with LPS for 24 hours,significant concentration-dependent inhibition
same,increased expression of iNOS in NLA or L-NAME plus LPS treated cells,iNOS [3],inhibited
same,LPS-induced COX-2 protein,"COX-2 [4]; 20, 40 μM with LPS (100 ng/mL) for 24 hours",did not inhibit
same,"basal COX-2 expression, compound alone",COX-2 [4]; no LPS,did not affect
same,NO in medium,iNOS [5]; 20 μM added for 12 hours after LPS (100 ng/ml) 12 hours pretreatment,15.4 ± 0.3 μM/6 × 10^5 cells
same,NO in medium,iNOS [5]; 40 μM added for 12 hours after LPS (100 ng/ml) 12 hours pretreatment,13.1 ± 0.9 μM/6 × 10^5 cells
same,iNOS enzyme activity in intact cells by nitrite production in the medium,iNOS [5]; added to cells pre-treated with LPS,did not affect
same,direct effect on iNOS enzyme activity,iNOS [6],did not directly affect
same,iNOS specific activity: NO formation,"iNOS [6]; 20 μM added to lysate of LPS (100 ng/mL, 12 hr)-treated cells",7.2 ± 0.1 μM/200 μg total protein
same,iNOS specific activity: NO formation,"iNOS [6]; 40 μM added to lysate of LPS (100 ng/mL, 12 hr)-treated cells",9.2 ± 1.8 μM/200 μg total protein
same,iNOS specific activity: NO formation,iNOS [6]; lysates of LPS-pretreated cells incubated with 20 μM for 12 hours,9.8 ± 2.3 μM/200 μg protein
same,iNOS specific activity: NO formation,iNOS [6]; lysates of LPS-pretreated cells incubated with 40 μM for 12 hours,8.1 ± 1.9 μM/200 μg protein
same,"NO production by direct enzyme activity assay, compound added to lysate (Table 3)",iNOS [6]; lysates of LPS-treated cells,did not inhibit
same,direct effect on COX-2 enzyme activity,COX-2 [7],did not directly affect
same,PGE2,COX-2 [7]; [12],6.1 ± 0.2 ng/mL
same,PGE2,COX-2 [7]; 40 μM for 30 min after LPS 6 hours,6.2 ± 0.5 ng/mL
same,PGE2 production using added arachidonic acid as a substrate,COX-2 [7],no decrease
same,PGE2,[8]; [10],6.2 ± 0.5 ng/mL
same,PGE2,[8]; [11],5.5 ± 0.8 ng/mL
"Iberiotoxin (QFTDVDCSVSKECWSVCKDLFGVDRGKCMGKKCRCYQ; UniProt P24663 1-37, looked up) [reference compound]",effect of the blocker/inhibitor on oroxylin A-induced relaxation,[1]; [9],slightly but significantly inhibited
"COc1ccc2c(c1)c(CC(=O)O)c(C)n2C(=O)c1ccc(Cl)cc1 [indomethacin, reference compound]",PGE2,COX-2 [7]; [12],2.0 ± 0.7 ng/mL
same,PGE2 production using added arachidonic acid as a substrate,COX-2 [7],significantly inhibited
"C[C@@H]1C(=O)O[C@H]2C[C@@]34[C@H]5C[C@@H](C(C)(C)C)[C@]36[C@@H](OC(=O)[C@@H]6O)O[C@@]4(C(=O)O5)[C@]21O [ginkgolide A, reference compound]",relaxation of cerebral arteries,[1],very small relaxation or no response
"tetraethylammonium [TEA, reference compound]",effect of the blocker on oroxylin A-induced relaxation,[1],significantly shifted the oroxylin A concentration response curves to the right; also recorded: almost abolished
same,effect of the blocker/inhibitor on oroxylin A-induced relaxation,[1],concentration-dependently (1-10 mM) inhibited; also recorded: blocked
